According to US3985779A, “M-phenoxyphenyl propionic acid derivatives and preparation thereof” (Eisai Co., Ltd., priority 1973, dated 1976):

How the values were obtained:
[1] = system: Carrageenin-induced edema; assay: Inhibitory activity on Carrageenin-induced Edema in rats (Experiment A); format: in vivo, rats (male Wistar); details: 3 hours after Carrageenin
Protocol: Inhibitory activity on Carrageenin-induced Edema in rats
Carrageenin was used as the agent for inducing edema and 5 male rats of Wistar strain having body weight of about 150 grs. after fasting for 16-17 hours were used as test animals. The inhibitory activity of the test compounds were determined with the paw edema method in accordance with Winter C. A. et al; Proc. Soc. Exp. Biol. Med. 111, 544 (1962).
The compounds were suspended in an aqueous solution of gum arabic and the same were orally administered to the rats at 1 hour before the injection of Carrageenin.
The observation was effected by measuring, after 3 hours the administration of the Carrageenin, the enlarged volumes of hind paw of the rats.

Kaolin-induced edema = assay: Inhibitory activity on Kaolin-induced Edema in Rats (Experiment B); format: in vivo
Dextran-induced edema = assay: Inhibitory activity on dextran-induced edema in rats (Experiment C); format: in vivo
Protocol: Inhibitory activity on dextran-induced edema in rats Experiment was carried out in the manner same as those of the preceding Experiments in which dextran was employed as irritant substance.

ARRS-induced edema = assay: Inhibitory activity on anti-rat-rabbit serum (ARRS)-induced edema in rats (Experiment D); format: in vivo
Protocol: Inhibitory activity on anti-rat-rabbit serum (ARRS)-induced edema in rats Similar Experiments was carried out by using ARRS as irritant substance.

CC(C(=O)O)c1cccc(Oc2ccc(Cl)cc2)c1 (stereo not drawn) [(3), 2-[m-(p-chlorophenoxy)phenyl]propionic acid]
% of Inhibition ([1]; oral 3.2 mg/kg): 20% | Edema density ± S.E. ([1]; oral 3.2 mg/kg): .430 ± .068 | % of Inhibition ([1]; oral 80.0 mg/kg): 38% | Edema density ± S.E. ([1]; oral 80.0 mg/kg): .334 ± .055 | Edema D. ± S.E. (Kaolin-induced edema; after 3 hrs, oral 16 mg/kg): .418 ± .024 | % of Inhibition (Kaolin-induced edema; after 3 hrs, oral 80 mg/kg): 29% | Edema D. ± S.E. (Kaolin-induced edema; after 3 hrs, oral 80 mg/kg): .297 ± .085 | % of Inhibition (Kaolin-induced edema; after 5 hrs, oral 16 mg/kg): 13% | Edema D. ± S.E. (Kaolin-induced edema; after 5 hrs, oral 16 mg/kg): .491 ± .021 | % of Inhibition (Kaolin-induced edema; after 5 hrs, oral 80 mg/kg): 40% | Edema D. ± S.E. (Kaolin-induced edema; after 5 hrs, oral 80 mg/kg): .340 ± .107 | % of Inhibition (Kaolin-induced edema; after 7 hrs, oral 16 mg/kg): 14% | Edema D. ± S.E. (Kaolin-induced edema; after 7 hrs, oral 16 mg/kg): .524 ± .037 | % of Inhibition (Kaolin-induced edema; after 7 hrs, oral 80 mg/kg): 27% | Edema D. ± S.E. (Kaolin-induced edema; after 7 hrs, oral 80 mg/kg): .442 ± .119 | % of Inhibition (Dextran-induced edema; after 2 hrs, oral 16 mg/kg): 6% | Edema D. ± S.E. (Dextran-induced edema; after 2 hrs, oral 16 mg/kg): .782 ± .062 | % of Inhibition (Dextran-induced edema; after 2 hrs, oral 80 mg/kg): 7% | Edema D. ± S.E. (Dextran-induced edema; after 2 hrs, oral 80 mg/kg): .776 ± .022 | % of Inhibition (Dextran-induced edema; after 3 hrs, oral 16 mg/kg): 5% | Edema D. ± S.E. (Dextran-induced edema; after 3 hrs, oral 16 mg/kg): .713 ± .036 | % of Inhibition (Dextran-induced edema; after 3 hrs, oral 80 mg/kg): 4% | Edema D. ± S.E. (Dextran-induced edema; after 3 hrs, oral 80 mg/kg): .723 ± .027 | % of Inhibition (ARRS-induced edema; after 2 hrs, oral 16 mg/kg): 10% | Edema D. ± S.E. (ARRS-induced edema; after 2 hrs, oral 16 mg/kg): .613 ± .054 | % of Inhibition (ARRS-induced edema; after 2 hrs, oral 80 mg/kg): 1% | Edema D. ± S.E. (ARRS-induced edema; after 2 hrs, oral 80 mg/kg): .672 ± .036 | % of Inhibition (ARRS-induced edema; after 3 hrs, oral 16 mg/kg): 16% | Edema D. ± S.E. (ARRS-induced edema; after 3 hrs, oral 16 mg/kg): .599 ± .065 | % of Inhibition (ARRS-induced edema; after 3 hrs, oral 80 mg/kg): 11% | Edema D. ± S.E. (ARRS-induced edema; after 3 hrs, oral 80 mg/kg): .634 ± .016

CC(C(=O)O)c1cccc(Oc2ccc(Cl)cc2)c1 (stereo not drawn) [(4)]
% of Inhibition ([1]; oral 8.0 mg/kg): 12% | Edema density ± S.E. ([1]; oral 8.0 mg/kg): .477 ± .049 | % of Inhibition ([1]; oral 40.0 mg/kg): 46% | Edema density ± S.E. ([1]; oral 40.0 mg/kg): .293 ± .056 | % of Inhibition (Kaolin-induced edema; after 3 hrs, oral 8 mg/kg): 12% | Edema D. ± S.E. (Kaolin-induced edema; after 3 hrs, oral 8 mg/kg): .369 ± .048 | % of Inhibition (Kaolin-induced edema; after 3 hrs, oral 40 mg/kg): 35% | Edema D. ± S.E. (Kaolin-induced edema; after 3 hrs, oral 40 mg/kg): .271 ± .075 | % of Inhibition (Kaolin-induced edema; after 5 hrs, oral 8 mg/kg): 8% | Edema D. ± S.E. (Kaolin-induced edema; after 5 hrs, oral 8 mg/kg): .519 ± .035 | % of Inhibition (Kaolin-induced edema; after 5 hrs, oral 40 mg/kg): 41% | Edema D. ± S.E. (Kaolin-induced edema; after 5 hrs, oral 40 mg/kg): .333 ± .073 | % of Inhibition (Kaolin-induced edema; after 7 hrs, oral 8 mg/kg): -3% | Edema D. ± S.E. (Kaolin-induced edema; after 7 hrs, oral 8 mg/kg): .625 ± .040 | % of Inhibition (Kaolin-induced edema; after 7 hrs, oral 40 mg/kg): 35% | Edema D. ± S.E. (Kaolin-induced edema; after 7 hrs, oral 40 mg/kg): .396 ± .072 | % of Inhibition (Dextran-induced edema; after 2 hrs, oral 8 mg/kg): 10% | Edema D. ± S.E. (Dextran-induced edema; after 2 hrs, oral 8 mg/kg): .753 ± .052 | % of Inhibition (Dextran-induced edema; after 2 hrs, oral 40 mg/kg): 6% | Edema D. ± S.E. (Dextran-induced edema; after 2 hrs, oral 40 mg/kg): .780 ± .033 | % of Inhibition (Dextran-induced edema; after 3 hrs, oral 8 mg/kg): 10% | Edema D. ± S.E. (Dextran-induced edema; after 3 hrs, oral 8 mg/kg): .780 ± .033 | % of Inhibition (Dextran-induced edema; after 3 hrs, oral 40 mg/kg): 8% | Edema D. ± S.E. (Dextran-induced edema; after 3 hrs, oral 40 mg/kg): .692 ± .048 | % of Inhibition (ARRS-induced edema; after 2 hrs, oral 8 mg/kg): 5% | Edema D. ± S.E. (ARRS-induced edema; after 2 hrs, oral 8 mg/kg): .649 ± .032 | % of Inhibition (ARRS-induced edema; after 2 hrs, oral 40 mg/kg): 17% | Edema D. ± S.E. (ARRS-induced edema; after 2 hrs, oral 40 mg/kg): .563 ± .016 | % of Inhibition (ARRS-induced edema; after 3 hrs, oral 8 mg/kg): 13% | Edema D. ± S.E. (ARRS-induced edema; after 3 hrs, oral 8 mg/kg): .621 ± .058 | % of Inhibition (ARRS-induced edema; after 3 hrs, oral 40 mg/kg): 25% | Edema D. ± S.E. (ARRS-induced edema; after 3 hrs, oral 40 mg/kg): .535 ± .027
